Consider one compound from paper PMC6115637 (Chemical Science, 2018).

Structures are written as SMILES. Changes are numbered by the printed parent chain.

What all share (type): cell-based
The target of experiment [1] is T1, M4 receptor I81A (Homo sapiens, UniProt P08173, I81A).
T1 sequence (P08173 1-479 I81A): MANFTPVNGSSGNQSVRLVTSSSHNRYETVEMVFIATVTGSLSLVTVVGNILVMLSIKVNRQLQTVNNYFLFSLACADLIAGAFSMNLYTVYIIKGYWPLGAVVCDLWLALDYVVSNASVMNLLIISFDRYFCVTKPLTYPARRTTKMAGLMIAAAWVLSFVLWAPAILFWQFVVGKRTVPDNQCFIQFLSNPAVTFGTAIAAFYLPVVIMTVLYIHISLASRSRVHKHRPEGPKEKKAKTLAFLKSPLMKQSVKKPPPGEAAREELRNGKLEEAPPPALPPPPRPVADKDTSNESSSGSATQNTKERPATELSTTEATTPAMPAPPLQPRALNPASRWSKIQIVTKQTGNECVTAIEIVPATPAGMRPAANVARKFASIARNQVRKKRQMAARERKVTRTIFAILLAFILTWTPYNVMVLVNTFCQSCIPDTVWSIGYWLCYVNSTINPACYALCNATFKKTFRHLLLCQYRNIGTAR
The experiment is described as follows: Split luciferase biosensor cAMP assay for Gi activation, M4 mutant I81A. The settings on record: M4 mutant I81A vs WT.

Experiment [2] deals with T2, M4 receptor S116A (Homo sapiens, UniProt P08173, S116A).
T2 sequence (P08173 1-479 S116A): T1 sequence (P08173 1-479 I81A) with A81I, S116A
The experiment is described as follows: Split luciferase biosensor cAMP assay for Gi activation, M4 mutant S116A. The settings on record: M4 mutant S116A vs WT.

Experiment [3] addresses T3, M4 receptor S119A (Homo sapiens, UniProt P08173, S119A).
T3 sequence (P08173 1-479 S119A): T1 sequence (P08173 1-479 I81A) with A81I, S119A
The experiment in a line: Split luciferase biosensor cAMP assay for Gi activation, M4 mutant S119A. The settings on record: M4 mutant S119A vs WT. (Changes in cAMP serve as a functional read-out for many G protein-coupled receptors.)

Experiment [4] has as its target T4, M4 receptor V120A (Homo sapiens, UniProt P08173, V120A).
T4 sequence (P08173 1-479 V120A): T1 sequence (P08173 1-479 I81A) with A81I, V120A
The experiment in a line: Split luciferase biosensor cAMP assay for Gi activation, M4 mutant V120A. Particulars: M4 mutant V120A vs WT.

In experiment [5] the target is T5, M4 receptor F409A (Homo sapiens, UniProt P08173, F409A).
T5 sequence (P08173 1-479 F409A): T1 sequence (P08173 1-479 I81A) with A81I, F409A
The experiment is described as follows: Split luciferase biosensor cAMP assay for Gi activation, M4 mutant F409A. The settings on record: M4 mutant F409A vs WT.

In experiment [6] the target is T6, M4 receptor W413A (Homo sapiens, UniProt P08173, W413A).
T6 sequence (P08173 1-479 W413A): T1 sequence (P08173 1-479 I81A) with A81I, W413A
The experiment is described as follows: Split luciferase biosensor cAMP assay for Gi activation, M4 mutant W413A.

Experiment [7] deals with T7, M4 receptor N445A (Homo sapiens, UniProt P08173, N445A).
T7 sequence (P08173 1-479 N445A): T1 sequence (P08173 1-479 I81A) with A81I, N445A
The experiment is described as follows: Split luciferase biosensor cAMP assay for Gi activation, M4 mutant N445A. Particulars: M4 mutant N445A vs WT.

Regarding `CC(=O)OCC[N+](C)(C)C` [ACh, acetylcholine], the “activity decrease compared to WT M4 receptor” value in experiment [1] and in experiment [2] was 100 times each time. Besides, the “decreased activity compared to WT M4 receptor” value in experiment [3], in experiment [5] and in experiment [7] was 4–14 fold throughout. For the same compound, in experiment [4], the “change of EC50 compared to WT M4 receptor (printed: increased the EC50)” value was determined as 16 fold. Moreover, the “activity of M4 mutant towards ACh” value in experiment [6] is “completely inactive”.
